Results taken from US20050085447A1, “Pyrido[3,4-d]pyrimidine derivatives as matrix metalloproteinase-13 inhibitors” (Warner-Lambert Company LLC, priority 2003, published 2005).
Like-named read-outs stand apart in the source and are kept apart here.

Legend:
Type in all cases: biochemical
[1] = target: T1, MMP-9 full-length (Homo sapiens, UniProt P14780); assay: Thiopeptolide substrate hydrolysis inhibition assay, MMP-9 full-length; details: full-length enzyme; read-out: MMP-9FL IC50
T1 construct: MMP-8 full-length, MMP-9 full-length, MMP-12 catalytic domain
T1 sequence (P14780 94-707): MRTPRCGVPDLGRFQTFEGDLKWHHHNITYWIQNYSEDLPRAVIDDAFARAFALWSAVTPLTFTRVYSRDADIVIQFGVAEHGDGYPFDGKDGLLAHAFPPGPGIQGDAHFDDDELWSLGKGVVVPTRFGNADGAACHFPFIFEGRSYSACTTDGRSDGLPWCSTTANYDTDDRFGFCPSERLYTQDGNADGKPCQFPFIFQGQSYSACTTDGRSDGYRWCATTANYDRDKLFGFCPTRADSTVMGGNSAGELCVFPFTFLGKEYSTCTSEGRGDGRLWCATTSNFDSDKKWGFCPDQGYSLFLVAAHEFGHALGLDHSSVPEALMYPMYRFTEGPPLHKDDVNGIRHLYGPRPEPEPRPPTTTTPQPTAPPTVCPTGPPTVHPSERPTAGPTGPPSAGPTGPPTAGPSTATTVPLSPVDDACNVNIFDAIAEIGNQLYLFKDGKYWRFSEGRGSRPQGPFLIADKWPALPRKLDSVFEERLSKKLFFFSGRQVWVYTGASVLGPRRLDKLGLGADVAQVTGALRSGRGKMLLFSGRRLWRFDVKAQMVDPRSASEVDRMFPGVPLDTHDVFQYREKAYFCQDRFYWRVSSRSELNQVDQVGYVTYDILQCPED
Excerpt: (§1) The assay methods of Biological Examples 1-4 measure the amount by which a test compound reduces the hydrolysis of a thiopeptolide substrate catalyzed by a matrix metalloproteinase enzyme or catalytic domain thereof. It has been shown previously by Ye Qi-Zhuang, Hupe D., and Johnson L. (Current Medicinal Chemistry, 1996;3:407-418) that inhibitor activity against a catalytic domain of an MMP is predictive of the inhibitor activity against the respective full-length MMP enzyme. The methods described below for the inhibition of MMP-13 may also be adapted and used to determine the ability of the compounds of Formula I to inhibit other matrix metalloproteases such as MMP-1, MMP-2, MMP-3, MMP-7, MMP-8, MMP-9, MMP-12, MMP-14, MMP-17, and the like.
(§2) Thiopeptolide substrates show virtually no decomposition or hydrolysis at or below neutral pH in the absence of a matrix metalloproteinase enzyme. A typical thiopeptolide substrate commonly utilized for assays is Ac-Pro-Leu-Gly-thioester-Leu-Leu-Gly-OEt. A 100 μL assay mixture will contain 50 mM of N-2-hydroxyethylpiperazine-N′-2-ethanesulfonic acid buffer (“HEPES,” pH 7.0), 10 mM CaCl2, 100 μM thiopeptolide substrate, and 1 mM 5,5′-dithio-bis-(2-nitro-benzoic acid) (DTNB). […] The change in absorbance at 405 nm is monitored on a Thermo Max microplate reader (molecular Devices, Menlo Park, Calif.) at room temperature (22° C.). The calculation of the amount of hydrolysis of the thiopeptolide substrate is based on E412=13600 M^−1 cm^−1 for the DTNB-derived product 3-carboxy-4-nitrothiophenoxide. Assays are carried out with and without matrix metalloproteinase inhibitor compounds, and the amount of hydrolysis is compared for a determination of inhibitory activity of the test compounds.
(§3) Test compounds were evaluated at various concentrations in order to determine their respective IC50 values, the micromolar concentration of compound required to cause a 50% inhibition of catalytic activity of the respective enzyme.
(§4) Some representative compounds of Formula I have been evaluated for their ability to inhibit MMP-13, MMP-1FL, MMP-3CD, MMP-7FL, MMP-8FL, MMP-9FL, MMP-12CD, MMP-14CD, and/or MMP-17CD, wherein FL means full-length enzyme and CD means a catalytic domain of the full-length enzyme. Test compounds can be evaluated at various concentrations in order to determine their respective IC50 values, the micromolar concentration of compound required to cause a 50% inhibition of the hydrolytic activity of the respective enzyme.
(§5) Certain compounds of Formula I have also been assayed with MMP-1 full-length, MMP-3 catalytic domain, MMP-7 full-length, MMP-8 full-length, MMP-9 full-length, MMP-12 catalytic domain, MMP-14 catalytic domain, and MMP-17 catalytic domain. […] In Biological Table 2, the compound example numbers for the Compound Examples are indicated in the column labelled “Ex. No.”

[2] = target: T2, MMP-7 full-length (Homo sapiens, UniProt P09237); assay: Thiopeptolide substrate hydrolysis inhibition assay, MMP-7 full-length; details: full-length enzyme; read-out: MMP-7FL IC50
T2 construct: MMP-3 catalytic domain, MMP-7 full-length, MMP-8 full-length
T2 sequence (P09237 95-267): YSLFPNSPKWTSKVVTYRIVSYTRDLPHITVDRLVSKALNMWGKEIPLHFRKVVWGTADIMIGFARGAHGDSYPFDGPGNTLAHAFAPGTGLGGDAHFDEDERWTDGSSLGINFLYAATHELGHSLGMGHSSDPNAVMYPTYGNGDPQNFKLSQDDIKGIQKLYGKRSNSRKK
Excerpt: as §1, §2, §3, §4, §5

[3] = target: T3, MMP-1 full-length (Homo sapiens, UniProt P03956); assay: Thiopeptolide substrate hydrolysis inhibition assay, MMP-1 full-length; details: full-length enzyme; read-out: MMP-1FL IC50
T3 construct: have also been assayed with MMP-1 full-length
T3 sequence (P03956 100-469): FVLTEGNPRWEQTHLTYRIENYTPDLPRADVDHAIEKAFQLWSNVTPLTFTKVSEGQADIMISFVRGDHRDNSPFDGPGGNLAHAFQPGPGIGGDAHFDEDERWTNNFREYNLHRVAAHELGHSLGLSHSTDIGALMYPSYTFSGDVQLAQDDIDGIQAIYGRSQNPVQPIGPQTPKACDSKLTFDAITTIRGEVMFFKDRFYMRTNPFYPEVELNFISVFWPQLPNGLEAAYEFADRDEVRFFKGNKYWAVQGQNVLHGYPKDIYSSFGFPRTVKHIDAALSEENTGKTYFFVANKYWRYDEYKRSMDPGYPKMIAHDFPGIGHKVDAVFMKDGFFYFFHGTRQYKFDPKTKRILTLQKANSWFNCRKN
Excerpt: as §1, §2, §3, §4, §5

[4] = target: T4, MMP-8 full-length (Homo sapiens, UniProt P22894); assay: Thiopeptolide substrate hydrolysis inhibition assay, MMP-8 full-length; details: full-length enzyme; read-out: MMP-8FL IC50
T4 construct: MMP-7 full-length, MMP-8 full-length, MMP-9 full-length
T4 sequence (P22894 101-467): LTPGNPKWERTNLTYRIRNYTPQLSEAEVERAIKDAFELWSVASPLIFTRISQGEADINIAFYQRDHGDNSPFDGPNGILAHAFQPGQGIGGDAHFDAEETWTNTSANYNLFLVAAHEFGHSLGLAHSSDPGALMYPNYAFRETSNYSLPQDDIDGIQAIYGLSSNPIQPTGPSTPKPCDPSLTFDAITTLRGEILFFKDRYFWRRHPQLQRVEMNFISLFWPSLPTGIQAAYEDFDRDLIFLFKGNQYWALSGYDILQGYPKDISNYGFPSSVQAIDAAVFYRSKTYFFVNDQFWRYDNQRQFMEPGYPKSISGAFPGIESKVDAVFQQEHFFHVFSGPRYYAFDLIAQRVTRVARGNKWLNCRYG
Excerpt: as §1, §2, §3, §4, §5

[5] = target: T5, MMP-14 catalytic domain (Homo sapiens, UniProt P50281); assay: Thiopeptolide substrate hydrolysis inhibition assay, MMP-14 catalytic domain; details: read-out: MMP-14CD IC50
T5 construct: MMP-14 catalytic domain, and MMP-17 catalytic domain
Excerpt: as §1, §2, §3, §4, §5

[6] = target: MMP-13 catalytic domain (Homo sapiens, UniProt P45452); assay: Thiopeptolide substrate hydrolysis inhibition assay, MMP-13 catalytic domain
Excerpt: The methods described below for the inhibition of MMP-13 may also be adapted and used to determine the ability of the compounds of Formula I to inhibit other matrix metalloproteases such as MMP-1, MMP-2, MMP-3, MMP-7, MMP-8, MMP-9, MMP-12, MMP-14, MMP-17, and the like.
Thiopeptolide substrates show virtually no decomposition or hydrolysis at or below neutral pH in the absence of a matrix metalloproteinase enzyme. A typical thiopeptolide substrate commonly utilized for assays is Ac-Pro-Leu-Gly-thioester-Leu-Leu-Gly-OEt. A 100 μL assay mixture will contain 50 mM of N-2-hydroxyethylpiperazine-N′-2-ethanesulfonic acid buffer (“HEPES,” pH 7.0), 10 mM CaCl2, 100 μM thiopeptolide substrate, and 1 mM 5,5′-dithio-bis-(2-nitro-benzoic acid) (DTNB). […] Assays are carried out with and without matrix metalloproteinase inhibitor compounds, and the amount of hydrolysis is compared for a determination of inhibitory activity of the test compounds.

[7] = target: T6, MMP-17 catalytic domain (Homo sapiens, UniProt Q9ULZ9); assay: Thiopeptolide substrate hydrolysis inhibition assay, MMP-17 catalytic domain; details: read-out: MMP-17 CD IC50
T6 construct: MMP-14 catalytic domain, and MMP-17 catalytic domain
T6 sequence (Q9ULZ9 126-295 limits assumed): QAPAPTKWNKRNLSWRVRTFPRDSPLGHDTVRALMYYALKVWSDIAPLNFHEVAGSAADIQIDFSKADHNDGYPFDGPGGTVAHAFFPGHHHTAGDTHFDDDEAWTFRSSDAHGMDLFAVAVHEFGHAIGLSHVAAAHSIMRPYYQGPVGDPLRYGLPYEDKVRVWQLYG
Excerpt: as §1, §2, §3, §4, §5

[8] = target: T7, MMP-3 catalytic domain (Homo sapiens, UniProt P08254); assay: Thiopeptolide substrate hydrolysis inhibition assay, MMP-3 catalytic domain; details: MES buffer pH 6.0, read-out: MMP-3CD IC50
T7 construct: MMP-1 full-length, MMP-3 catalytic domain, MMP-7 full-length
T7 sequence (P08254 100-272 limits assumed): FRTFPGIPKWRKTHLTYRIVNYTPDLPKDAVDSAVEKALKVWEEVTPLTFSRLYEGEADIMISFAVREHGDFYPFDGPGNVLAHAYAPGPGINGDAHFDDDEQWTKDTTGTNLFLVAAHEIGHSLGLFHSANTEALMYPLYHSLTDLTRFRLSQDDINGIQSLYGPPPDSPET
Excerpt: as §1, §2, §3
It should be appreciated that the assay buffer used with MMP-3CD was 50 mM N-morpholinoethane sulfonate (“MES”) at pH 6.0 rather than the HEPES buffer at pH 7.0 described above.
as §4, §5

[9] = target: T8, MMP-12 catalytic domain (Homo sapiens, UniProt P39900); assay: Thiopeptolide substrate hydrolysis inhibition assay, MMP-12 catalytic domain; details: read-out: MMP-12CD IC50
T8 construct: MMP-9 full-length, MMP-12 catalytic domain, MMP-14 catalytic domain
T8 sequence (P39900 106-263 limits assumed): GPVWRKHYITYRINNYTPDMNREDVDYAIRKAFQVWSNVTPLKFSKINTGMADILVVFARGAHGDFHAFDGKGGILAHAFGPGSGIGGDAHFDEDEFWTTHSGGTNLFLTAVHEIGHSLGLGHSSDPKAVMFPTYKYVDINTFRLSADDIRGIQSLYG
Excerpt: as §1, §2, §3, §4, §5

[10] = MMP-13 catalytic domain, read-out: MMP-13CD IC50

| IC50 [1] | IC50 [2] | IC50 [3] | IC50 [4] | IC50 [5] | IC50 [6, 10] | IC50 [7] | IC50 [8] | IC50 [9] | SMILES | IC50 [6] |
| --- | --- | --- | --- | --- | --- | --- | --- | --- | --- | --- |
| > 100 µM | > 100 µM | > 100 µM | > 100 µM | > 100 µM | 1.3 nM | > 100 µM | 14 µM |  | COc1cccc(CNC(=O)c2cc3c(=O)n(Cc4ccc(C(=O)O)cc4)cnc3cn2)c1 [Compound Example 2, 4-[6-(3-methoxy-benzylcarbamoyl)-4-oxo-4H-pyrido[3,4-d]pyrimidin-3-ylmethyl]-benzoic acid] |  |
| > 100 µM | > 100 µM | > 100 µM | > 100 µM | > 100 µM | 32 nM | > 100 µM | > 100 µM |  | O=C(O)c1ccc(Cn2cnc3cnc(C(=O)NCc4cccnc4)cc3c2=O)cc1 [Compound Example 3, 4-{4-oxo-6-[(pyridin-3-ylmethyl)-carbamoyl]-4H-pyrido[3,4-d]pyrimidin-3-ylmethyl}-benzoic acid] |  |
|  |  |  |  | > 100 µM | 5 nM | > 100 µM | 81 µM | > 100 µM | O=C(O)c1ccc(Cn2cnc3cnc(C(=O)NCc4ccncc4)cc3c2=O)cc1 [Compound Example 5, 4-{4-oxo-6-[(pyridin-4-ylmethyl)-carbamoyl]-4H-pyrido[3,4-d]pyrimidin-3-ylmethyl}-benzoic acid] |  |
|  |  |  |  | > 100 µM |  | > 100 µM | 17 µM | > 100 µM | COc1cc(CNC(=O)c2cc3c(=O)n(Cc4ccc(C(=O)O)cc4)cnc3cn2)ccn1 [Compound Example 6, 4-{6-[(2-methoxy-pyridin-4-ylmethyl)-carbamoyl]-4-oxo-4H-pyrido [3,4-d]pyrimidin-3-ylmethyl}-benzoic acid] |  |
| > 100 µM | > 100 µM | > 100 µM | > 100 µM | > 100 µM |  | > 100 µM | 41 µM |  | O=C(O)c1ccc(Cn2cnc3cnc(C(=O)NCc4cccc(Cl)c4)cc3c2=O)cc1 [Compound Example 10, 4-[6-(3-chloro-benzylcarbamoyl)-4-oxo-4H-pyrido[3,4-d]pyrimidin-3-ylmethyl]-benzoic acid] |  |
| > 100 µM | > 100 µM | > 100 µM | > 100 µM | > 100 µM | 5.3 nM | > 100 µM | 42 µM |  | O=C(O)c1ccc(Cn2cnc3cnc(C(=O)NCc4ccc(F)c(F)c4)cc3c2=O)cc1 [Compound Example 14, 4-[6-(3,4-difluoro-benzylcarbamoyl)-4-oxo-4H-pyrido[3,4-d]pyrimidin-3-ylmethyl]-benzoic acid] |  |
| > 100 µM | > 30 µM | > 100 µM | > 100 µM | > 30 µM | 20 nM | > 100 µM | > 100 µM |  | COc1cc(CNC(=O)c2cc3c(=O)n(Cc4ccc(C(=O)O)cc4)cnc3cn2)ccc1O [Compound Example 15, 4-[6-(4-hydroxy-3-methoxy-benzylcarbamoyl)-4-oxo-4H-pyrido[3,4-d]pyrimidin-3-ylmethyl]-benzoic acid] |  |

| SMILES | IC50 [1] | IC50 [2] | IC50 [3] | IC50 [4] | IC50 [5] | IC50 [6, 10] | IC50 [7] | IC50 [8] | IC50 [9] | IC50 [6] |
| --- | --- | --- | --- | --- | --- | --- | --- | --- | --- | --- |
| O=C(O)c1ccc(Cn2cnc3cnc(C(=O)NCc4ccc(Cl)cc4)cc3c2=O)cc1 [Compound Example 4, 4-[6-(4-chloro-benzylcarbamoyl)-4-oxo-4H-pyrido [3,4-d]pyrimidin-3-ylmethyl]-benzoic acid] | > 100 µM | > 100 µM | > 100 µM |  | > 100 µM |  | > 100 µM | > 100 µM |  | 10 nM |
| O=C(O)c1ccc(Cn2cnc3cnc(C(=O)NCc4cccc(F)c4)cc3c2=O)cc1 [Compound Example 11, 4-[6-(3-fluoro-benzylcarbamoyl)-4-oxo-4H-pyrido[3,4-d]pyrimidin-3-ylmethyl]-benzoic acid] | > 100 µM | > 100 µM | > 100 µM | > 100 µM | > 100 µM |  | > 100 µM | > 100 µM |  | 17 nM |
| O=C(O)c1ccc(Cn2cnc3cnc(C(=O)NCc4ccc(C(F)(F)F)cc4)cc3c2=O)cc1 [Compound Example 12, 4-[4-oxo-6-(4-trifluoromethyl-benzylcarbamoyl)-4H-pyrido[3,4-d]pyrimidin-3-ylmethyl]-benzoic acid] | > 100 µM | > 100 µM | > 100 µM | > 100 µM | > 100 µM |  | > 100 µM | > 100 µM |  | 97 nM |
| O=C(O)c1ccc(Cn2cnc3cnc(C(=O)NCc4cccc(C(F)(F)F)c4)cc3c2=O)cc1 [Compound Example 13, 4-[4-oxo-6-(3-trifluoromethyl-benzylcarbamoyl)-4H-pyrido[3,4-d]pyrimidin-3-ylmethyl]-benzoic acid] | > 100 µM | > 100 µM | > 100 µM |  | > 100 µM |  | > 100 µM | 48 µM |  | 2.6 nM |
